Test results published in patent US11166942B2 (PRAXIS BIOTECH LLC, priority 2018, dated 2021).
Like-named read-outs stand apart in the source and are kept apart here.

Key:
[1] = system: ATF4; assay: ATF4 expression inhibition assay (ATF4 5'UTR luciferase reporter, Tg-stressed HEK293T cells); assay type: cell-based, human; conditions: 100 nM thapsigargin, 3 hours, HEK293T ATF4 luciferase reporter; for inhibition at 0.1 µM: 100 nM test compound, read-out: % ATF4 inhibition at 100 nM; for IC50: read-out: ATF4 inhbition IC50; for inhibition at 1 µM: 1 μM test compound, read-out: % ATF4 inhibition at 1 μM
Method in brief: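 HEK293T stably expressing luciferase fused downstream of human full-length ATF4 5′UTR, stressed with 100 nM thapsigargin plus compound (100 nM or 1 μM; IC50 series 0.1 nM to 1 μM) for 3 h at 37° C. Luminescence normalized to Tg alone (0%) and untreated cells (100% inhibition).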

[2] = system: HEK293T cells; assay: Recovery of protein translation in stressed HEK293T cells; assay type: cell-based, human
From the text: Despite the great potency on the inhibition of ATF4 expression, ISRIB is not able to completely restore protein synthesis when the global protein translation is decreased under these stress conditions. […] Compound 4 has a great potency for the inhibition of ATF4 expression under stress condition (FIG. 3) and is much better at restoring global protein translation under ER stress-mediated repression and going beyond a 100% recovery (FIG. 4).

[3] = system: Chinese hamster ovary (CHO) cells; assay: Protein translation assay (puromycin labelling, CHO cells); assay type: cell-based; conditions: media alone = 100%; for activity at 1 µM: Cricetulus griseus, CHO
Method in brief: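 CHO cells given compound 2 h at 1 μM (unstressed), or 1 h at 100 nM or 1 μM then co-treated with 300 nM Tg (stressed); 10 μg/ml puromycin pulse 30 min, anti-puromycin western blot with β-actin, densitometry. Normalized to media alone (100%) and, for stressed cells, Tg alone (0%).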

[4] = system: hippocampal slices from transgenic APP/PS1 mice; assay: Electrophysiology and long-term potentiation in hippocampal slices; conditions: slices from APP/PS1 mouse, 5 μM, 20 min before stimulation (FIGS. 5A, 5B)
Method: Hippocampal slices were prepared as described in Ardiles et al., Pannexin 1 regulates bidirectional hippocampal synaptic plasticity in adult mice. Front Cell Neurosci, vol. 8, art. 326 (2014). Six to nine-month-old WT C57BL/6 or transgenic APP/PS1 mice (Jackson Lab 34829-JAX) were deeply anesthetized with isoflurane and their brains were quickly removed. 5-10 slices (350 μm) from each animal were dissected in ice-cold dissection buffer using a vibratome (Leica VT1200S, Leica Microsystems, Nussloch, Germany). Slices were incubated with 5 μM ISRIB (trans-N,N′-1,4-cyclohexanediylbis[2-(4-chlorophenoxy)-acetamide) or a vehicle (complete medium containing 0.1% DMSO) 20 min before conditioning stimulation. Synaptic responses were evoked by stimulating the Schaffer collaterals with 0.2 ms pulses delivered through concentric bipolar stimulating electrodes, and recorded extracellularly in the stratum radiatum of the CA1 subfield. Long-term potentiation (LTP) was induced by four-theta burst stimulation (TBS) (10 trains of four pulses at 100 Hz; 5 Hz inter-burst interval) delivered at 0.1 Hz. LTP magnitude based on field excitatory postsynaptic potential (fEPSP) was calculated as the average (normalized to baseline) of the responses recorded 60 min after conditioning stimulation. Similar experiments can be performed using a test compound in place of ISRIB.

[5] = 2 h, unstressed CHO cells, 1 μM, 2 hours, read-out: % Protein synthesis in unstressed cells (1 μM test compound)
[6] = CHO cells stressed with 300 nM Tg, 1 μM compound, Tg alone = 0%, read-out: % Recovery of protein expression (1 μM test compound)

Row | IC50 ([1]; Homo sapiens, HEK-293T, 3 h) | IC50 [1] | Compound | inhibition at 0.1 µM ([1]; Homo sapiens, HEK-293T, 3 h) | inhibition at 1 µM ([1]; Homo sapiens, HEK-293T, 3 h) | percent recovery of protein translation in stressed cells ([2]; 1 μM (FIG. 4)) | % Recovery of protein expression (100 nM test compound) ([3]; CHO cells stressed with 300 nM Tg, 100 nM compound, Tg alone = 0%) | activity at 1 µM [3, 5] | activity at 1 µM [3, 6] | restoration of protein translation in stressed cells ([2]; up to 200-fold its IC50 value (FIG. 2)) | long-term potentiation (LTP, fEPSP slope) 60 min after theta burst stimulation [4]
1 | > 1000 nM |  | O=C(NN1CCN(C[C@@H](O)COc2ccc(Cl)c(F)c2)CC1)c1cnc(C(F)F)cn1 [Compound 66, (R)-N-(4-(3-(4-chloro-3-fluorophenoxy)-2-hydroxypropyl)piperazin-1-yl)-5-(difluoromethyl)pyrazine-2-carboxamide] | 0% | 0% |  |  | 84.9% | 17.6% |  | 
2 | > 1000 nM |  | N#Cc1ccc(C(=O)NN2CCN(C[C@@H](O)COc3ccc(Cl)c(F)c3)CC2)nc1 [Compound 67, (R)-N-(4-(3-(4-chloro-3-fluorophenoxy)-2-hydroxypropyl)piperazin-1-yl)-5-cyanopicolinamide] | 3.6% | 27.8% |  |  | 80% | 27.6% |  | 
3 | < 1000 nM |  | COc1ccc2oc(C(=O)NN3CCC(NC[C@@H](O)COc4ccc(Cl)c(F)c4)CC3)cc2c1 [Compound 69, (R)-N-(4-((3-(4-chloro-3-fluorophenoxy)-2-hydroxypropyl)amino)piperidin-1-yl)-5-methoxybenzofuran-2-carboxamide] | 37% | 78.1% |  |  | 129% | 43.1% |  | 
4 |  | 5 nM | O=C(COc1ccc(Cl)cc1)N[C@H]1CC[C@H](NC(=O)COc2ccc(Cl)cc2)CC1 [ISRIB, reference compound] |  |  |  |  |  |  | only partially restores protein translation | partial LTP recovery

More lines, now with the values behind:

Row | Compound | IC50 ([1]; Homo sapiens, HEK-293T, 3 h) | IC50 [1] | inhibition at 0.1 µM ([1]; Homo sapiens, HEK-293T, 3 h) | inhibition at 1 µM ([1]; Homo sapiens, HEK-293T, 3 h) | percent recovery of protein translation in stressed cells ([2]; 1 μM (FIG. 4)) | % Recovery of protein expression (100 nM test compound) ([3]; CHO cells stressed with 300 nM Tg, 100 nM compound, Tg alone = 0%) | activity at 1 µM [3, 5] | activity at 1 µM [3, 6] | restoration of protein translation in stressed cells ([2]; up to 200-fold its IC50 value (FIG. 2)) | long-term potentiation (LTP, fEPSP slope) 60 min after theta burst stimulation [4]
5 | O=C(COc1ccc(Cl)c(F)c1)NC1CCN(NC(=O)COc2ccc(Cl)c(F)c2)CC1 [Compound 4, N,N′-(piperidine-1,4-diyl)bis(2-(4-chloro-3-fluorophenoxy)acetamide)] | 3.1 nM |  | 93.2% | 94.7% | > 100% | 83.5% | 105% | 169% |  | 
6 | O=C(NN1CCN(C[C@@H](O)COc2ccc(Cl)c(F)c2)CC1)c1ccc2cc(Cl)ccc2c1 [Compound 60, (R)-6-chloro-N-(4-(3-(4-chloro-3-fluorophenoxy)-2-hydroxypropyl)piperazin-1-yl)-2-naphthamide] | 1.5 nM |  | 92.6% | 94.6% |  |  | 140% | 126% |  | 
7 | O=C(NN1CCN(C[C@H](O)COc2ccc(Cl)c(F)c2)CC1)c1ccc2cc(Cl)ccc2c1 [Compound 61, (S)-6-chloro-N-(4-(3-(4-chloro-3-fluorophenoxy)-2-hydroxypropyl)piperazin-1-yl)-2-naphthamide] | 29.4 nM |  | 72.4% | 86.6% |  |  | 195% | 171% |  | 
8 | O=C(NN1CCN(C[C@@H](O)COc2ccc(Cl)c(F)c2)CC1)c1ccc(OC(F)(F)F)cc1 [Compound 62, (R)-N-(4-(3-(4-chloro-3-fluorophenoxy)-2-hydroxypropyl)piperazin-1-yl)-4-(trifluoromethoxy)benzamide] | < 100 nM |  | 85.9% | 88.8% |  |  | 99.5% | 40.2% |  | 
9 | O=C(NN1CCN(C[C@@H](O)COc2ccc(Cl)c(F)c2)CC1)c1ccc(Cl)cc1 [Compound 63, (R)-4-chloro-N-(4-(3-(4-chloro-3-fluorophenoxy)-2-hydroxypropyl)piperazin-1-yl)benzamide] | < 1000 nM |  | 14.8% | 84.6% |  |  | 107% | 16.4% |  | 
10 | O=C(NN1CCN(C[C@@H](O)COc2ccc(Cl)c(F)c2)CC1)c1ccc(Cl)cn1 [Compound 64, (R)-5-chloro-N-(4-(3-(4-chloro-3-fluorophenoxy)-2-hydroxypropyl)piperazin-1-yl)picolinamide] |  |  | 20% | 56.6% |  |  | 109% | 34.7% |  | 
11 | O=C(NN1CCN(C[C@@H](O)COc2ccc(Cl)c(F)c2)CC1)c1ccc(C(F)(F)F)cn1 [Compound 65, (R)-N-(4-(3-(4-chloro-3-fluorophenoxy)-2-hydroxypropyl)piperazin-1-yl)-5-(trifluoromethyl)picolinamide] | < 1000 nM |  | 22.6% | 80.5% |  |  | 99% | 51.1% |  | 
12 | O=C(NN1CCC(NC[C@@H](O)COc2ccc(Cl)c(F)c2)CC1)c1ccc(Cl)cn1 [Compound 68, (R)-5-chloro-N-(4-((3-(4-chloro-3-fluorophenoxy)-2-hydroxypropyl)amino)piperidin-1-yl)picolinamide] |  |  | 9% | 50.9% |  |  | 81.8% | 49.3% |  | 
